Measured values as given in patent publication US5278324A, “Water soluble derivatives of taxol” (Virginia Tech Intellectual Properties, Inc., priority 1991, dated 1994).
Counter-ions that a name gives are not always drawn.

Columns and labels:
[1] = test system: acute leukemia and melanoma; settings: preliminary studies; cited from earlier work
[2] = Water solubility by partition between 1-octanol and water, relative to taxol; settings: for times more water soluble than taxol / solubilities greater than taxol: 1-octanol/water partition; for solubilities greater than taxol: Table 9 discussion; for water solubility (in words): versus taxol or the other derivatives
Procedure: Water solubilities for all compounds were determined by the partition coefficient between 1-octanol and water. Octanol saturated with distilled water and distilled water saturated with octanol were used for the solubility determinations.
Taxol's water solubility was determined by dissolving 1.6 mg of taxol in 10 ml of distilled water saturated with 1-octanol in a 60 ml separatory funnel, and 10 ml of 1-octanol saturated with distilled water was then added. The funnel was shaken, and allowed to stand for about 30 minutes until the organic and aqueous phases separated. UV absorption measurements at 228 nm were made of the aqueous layer and/or octanol layer, with the octanol layer being diluted 5 times before measurement.

[3] = test system: several tumor systems; settings: background statement; cited from earlier work
[4] = test system: tubulin; settings: cited from earlier work
[5] = test system: drug-refractory ovarian cancer; settings: McGuire et al. 1989; cited from earlier work
[6] = cited from earlier work
[7] = cited from earlier work; remark: listed apart in the source
[8] = cited from earlier work; remark: listed apart in the source
[9] = Magri and Kingston 1988; cited from earlier work
[10] = Biological testing of 2'-[(3-sulfo-1-oxopropyl)oxy]taxol sodium salt
[11] = Deutsch et al. 1989; cited from earlier work
[12] = Aqueous solubility (statements in words); format: physicochemical; settings: versus the neutral form
[13] = Stability of 2'-γ-aminobutyryltaxol formate (proton NMR and TLC); format: physicochemical; settings: after a few hours
Text: 2'-γ-aminobutyryltaxol formate was synthesized by coupling taxol with N-carbobenzyloxy (CBZ) -γ-aminobutyric acid followed by deprotection of the amine. Taxol was reacted with N-CBZ-γ- aminobutyric acid using dicyclohexyl-carbodiimide (DCC) as the coupling agent. The resulting 2'-NCBZ-γ-aminobutyryl taxol was produced in 75% yield after purification via preparative TLC with silica gel and 3/2 hexane/ethyl acetate. […] Deprotection of the 2'-N-CBZ-γ-aminobutyryltaxol was effected using 5% Pd/C as a catalyst and formic acid as a hydrogen source. […] NMR confirmed the synthesis of the 2'-γ-aminobutyryl taxol formate. […] This instability precluded further consideration of 2'-γ-amino-butyryltaxol formate as a prodrug form of taxol.

[14] = test system: P-388; settings: compared with taxol; cited from earlier work
[15] = Magri and Kingston; cited from earlier work
[16] = test system: cell culture; settings: Magri and Kingston 1988; cited from earlier work
[17] = in vivo conditions; cited from earlier work

In the case of `CC(=O)O[C@H]1C(=O)[C@@]2(C)[C@H]([C@H](OC(=O)c3ccccc3)[C@]3(O)C[C@H](OC(=O)[C@H](O)[C@@H](NC(=O)c4ccccc4)c4ccccc4)C(C)=C1C3(C)C)[C@]1(OC(C)=O)CO[C@@H]1C[C@@H]2O` [Taxol, taxol], the “activity in acute leukemia and melanoma” value [1] is given as “marginal activity in acute leukemia and melanoma”, the “Relative Solubility (water solubility relative to taxol)” value [2] is given as 1 and the “activity in tumor systems” value [3] is given as “has shown activity in several tumor systems”. The “effect on microtubule formation” value [4] was “promotes formation of the microtubules”, the “effect on depolymerization of tubulin” value ([4]; mitotic spindle microtubules) was “prevents depolymerization of the tubulin” and the “activity against drug-refractory ovarian cancer” value [5] was “active agent against drug-refractory ovarian cancer”. The “water solubility of taxol” value ([6]; background statement) was “low water solubility”, the “toxic effects in phase 1 clinical trials” value [7] was “did not show excessive toxic effects” and the stability in base ([8]; base) was “readily hydrolyzed in base”.
For `CC(=O)O[C@H]1C(=O)[C@@]2(C)[C@H]([C@H](OC(=O)c3ccccc3)[C@]3(O)C[C@H](OC(=O)[C@H](O[Si](C)(C)C(C)(C)C)[C@@H](NC(=O)c4ccccc4)c4ccccc4)C(C)=C1C3(C)C)[C@]1(OC(C)=O)CO[C@@H]1C[C@@H]2O` [2'-(t-butyldimethylsilyl) taxol], the biological activity [9] is listed as “essentially inactive”.
With `CC(=O)O[C@H]1C(=O)[C@@]2(C)[C@H]([C@H](OC(=O)c3ccccc3)[C@]3(O)C[C@H](OC(=O)[C@H](OC(=O)CCC(=O)NCCCS(=O)(=O)O)[C@@H](NC(=O)c4ccccc4)c4ccccc4)C(C)=C1C3(C)C)[C@]1(OC(C)=O)CO[C@@H]1C[C@@H]2O` [2'-{[4-((3-sulfopropyl)-amino)-1,4-dioxobutyl]oxy}taxol sodium salt] the “times more water soluble than taxol” value [2] was 118 times and the “solubilities greater than taxol” value [2] was “more than 100 times”.
For `CC(=O)O[C@H]1C(=O)[C@@]2(C)[C@H]([C@H](OC(=O)c3ccccc3)[C@]3(O)C[C@H](OC(=O)[C@H](OC(=O)CCS(=O)(=O)O)[C@@H](NC(=O)c4ccccc4)c4ccccc4)C(C)=C1C3(C)C)[C@]1(OC(C)=O)CO[C@@H]1C[C@@H]2O` [2'-[(3-sulfo-1-oxopropyl)oxy]taxol sodium salt], the “times more water soluble than taxol” value [2] was 210 times, the “water solubility (in words)” value ([2]; listed as 2'-[(3-sulfo-l- oxopropyl)oxy]taxol sodium salt, sodium salt) was “improved water solubility” and the “water solubility (in words)” value ([2]; listed as 2'-acryloyltaxol derivative, sodium salt) was “highest water solubility”. The bioactivity [10] was “bioactive”.
In the case of `CC(=O)O[C@H]1C(=O)[C@@]2(C)[C@H]([C@H](OC(=O)c3ccccc3)[C@]3(O)C[C@H](OC(=O)[C@H](OC(=O)CCC(=O)NCCS(=O)(=O)O)[C@@H](NC(=O)c4ccccc4)c4ccccc4)C(C)=C1C3(C)C)[C@]1(OC(C)=O)CO[C@@H]1C[C@@H]2O` [2'-{[4-((2-sulfoethyl)amino)-1,4-dioxo-butyl]oxy}taxol sodium salt], the “times more water soluble than taxol” value [2] was 191 times, the “solubilities greater than taxol” value [2] was “more than 100 times” and the “water solubility (in words)” value [2] was “much greater water solubility than the 3-amino-1-sulfopropionic acid derivative of 2'-succinyltaxol”.
For `CC[C@]1(O)C[C@@H]2CN(CCc3c([nH]c4ccccc34)[C@@](C(=O)OC)(c3cc4c(cc3OC)N(C)[C@H]3[C@@](O)(C(=O)OC)[C@H](OC(C)=O)[C@]5(CC)C=CCN6CC[C@]43[C@@H]65)C2)C1` [vinblastine], the “effect on microtubule formation” value [4] is listed as “prevent microtubule formation”.
For `CC(=O)O[C@H]1C(=O)[C@@]2(C)[C@H]([C@H](OC(=O)c3ccccc3)[C@]3(O)C[C@H](OC(=O)[C@H](OC(=O)CCCC(=O)NCCCN(C)C)[C@@H](NC(=O)c4ccccc4)c4ccccc4)C(C)=C1C3(C)C)[C@]1(OC(C)=O)CO[C@@H]1C[C@@H]2O`, the antitumor activity [11] is given as “good solubility and bioactivity” and the solubility ([6]; Deutsch et al. 1989) is given as “good solubility”.
With `CC(=O)O[C@H]1C(=O)[C@@]2(C)[C@H]([C@H](OC(=O)c3ccccc3)[C@]3(O)C[C@H](OC(=O)[C@H](OC(=O)CCCN)[C@@H](NC(=O)c4ccccc4)c4ccccc4)C(C)=C1C3(C)C)[C@]1(OC(C)=O)CO[C@@H]1C[C@@H]2O` [2'-γ-aminobutyryltaxol formate, 2'-γ-amino-butyryltaxol formate] the “water solubility of formate salt” value [12] was “more water soluble than the neutral form”, the “stability (proton NMR and TLC)” value [13] was “decomposed back to taxol” and the “stability in methanol solution” value ([13]; methanol solution) was “unstable in methanol solution and decomposed back to taxol after a few hours”.
In the case of `CC(=O)O[C@H]1C(=O)[C@@]2(C)[C@H]([C@H](OC(=O)c3ccccc3)[C@]3(O)C[C@H](OC(=O)[C@H](OC(=O)CCC(=O)O)[C@@H](NC(=O)c4ccccc4)c4ccccc4)C(C)=C1C3(C)C)[C@]1(OC(C)=O)CO[C@@H]1C[C@@H]2O` [2'-succinyltaxol], the “P-388 in vivo activity” value [14] is listed as “much diminished P-388 in vivo activity as compared with taxol”.
For `CC(=O)O[C@H]1C(=O)[C@@]2(C)[C@H]([C@H](OC(=O)c3ccccc3)[C@]3(O)C[C@H](OC(=O)[C@H](OC(=O)CCN)[C@@H](NC(=O)c4ccccc4)c4ccccc4)C(C)=C1C3(C)C)[C@]1(OC(C)=O)CO[C@@H]1C[C@@H]2O` [2'-(β-alanyl)taxol], the “activity in vivo and in vitro” value [15] is given as “active in vivo and in vitro” and the stability ([8]; Magri and Kingston) is given as “unstable”.
In the case of `CC(=O)O[C@H]1C(=O)[C@]2(C)[C@@H](OC(C)=O)C[C@H]3OC[C@@]3(OC(C)=O)[C@H]2[C@H](OC(=O)c2ccccc2)[C@]2(O)C[C@H](OC(=O)[C@H](OC(C)=O)[C@@H](NC(=O)c3ccccc3)c3ccccc3)C(C)=C1C2(C)C` [2',7-diacetyltaxol], the “activity in a cell culture bioassay” value [16] is given as “both showed activity in a cell culture bioassay” and the “hydrolysis of acyl substituents at the 2' position” value [17] is given as “readily hydrolyzed under in vivo conditions”.
For `CC(=O)O[C@H]1C(=O)[C@@]2(C)[C@H]([C@H](OC(=O)c3ccccc3)[C@]3(O)C[C@H](OC(=O)[C@H](OC(C)=O)[C@@H](NC(=O)c4ccccc4)c4ccccc4)C(C)=C1C3(C)C)[C@]1(OC(C)=O)CO[C@@H]1C[C@@H]2O` [2'-acetyltaxol], the “activity in a cell culture bioassay” value [16] is given as “both showed activity in a cell culture bioassay” and the “hydrolysis of acyl substituents at the 2' position” value [17] is given as “readily hydrolyzed under in vivo conditions”.
